Laboratory results reported in article PMC5145181, “Structural Mapping and Functional Characterization of Zebrafish Class B G-Protein Coupled Receptor (GPCR) with Dual Ligand Selectivity towards GLP-1 and Glucagon” (PLoS ONE, 2016).
Read-outs that look alike come from different tables or passages of the source. One block for each substance: values may come before it.

Legend:
[1] = test system: GLP-1R; settings: cited from earlier work
Source text: Receptors for GLP-1 (GLP-1R) and glucagon (GCGR) belong to the class B GPCRs that mediate the physiological effects of the peptides within the glucagon-secretin peptide family. Their structures are characterized by large amino terminal extracellular domains which are about 140 amino acids long and an intracellular core consisting of a cytoplasmic domain and seven transmembrane helices (7TMs) connected through three extracellular and three intracellular loops.

[2] = test system: fish hepatocytes; settings: GLP-1 from both human and fish; cited from earlier work
Source text: Our approach to understanding the selectivity of ligand recognition by the receptors for the gluco-regulatory peptides, GLP-1 and glucagon, has been to functionally characterize the ligand selectivity of GCGRs and GLP-1Rs from non-mammalian vertebrates and to compare them to the ligand selectivity of their mammalian counterparts. […] In the abs ...

[3] = test system: zfGPCR (dual zfGLP-1R/GCGR); assay: Competitive binding, displacement of 125I-exendin(9–39) from recombinant zfGPCR expressed in COS-7 cells; set-up: species or system zebrafish (Danio rerio); settings: 125I-exendin(9–39) tracer, intact COS-7 cells, 16–18 h at 4°C, triplicate wells, NSB with 1 μM peptide, n = 4 zfGLP-1, n = 3 hGLP-1, zf glucagon, exendin-4, n = 5 exendin(9–39). 95% CI: zfGLP-1 225–371, hGLP-1 121–262, zf glucagon 78.5–144, h glucagon 33.6–134, exendin-4 0.84–1.17, exendin(9–39) 3.42–5.17
Protocol: (§1) Competitive binding experiments were performed with the recombinant zfGPCR expressed in COS-7 cells, as described previously. Transient transfections of pcDNA3 vector containing recombinant zfGPCR into COS-7 cells were performed as described below for the stimulation of intracellular cAMP. Cells were grown in 100-mm plates to confluence and 24 hr after transfection they were trypsinized and transferred to 24 well plates (Biocore, Becton Dickinson). 24–48 hr later each peptide (pM to μM) was added in triplicate wells followed by the addition of an aliquot (100,000 cpm/well) of either ^125I-hGLP-1(7–36)amide or ^125I-exendin(9–39) (each radioactive peptide tracer at […] receptor grade, NEN Life Science Products, Boston, MA). Peptides, radioiodinated ^125I-tracer and cells were incubated for 16–18 h at 4°C. After incubation cells were washed twice with ice-cold PBS, lysed with 1N NaOH and radioactivity measured in a γ-counter. A single dose-displacement curve for each peptide was obtained in a single 24-well plate.
Non-specific binding was determined in the presence of 1μM of each peptide.
(§2) IC50 values represent an average of n experiments as described above and were calculated by the Prism 4 software. Displacement curves from the competitive binding experiments were plotted by Origin 9 software (OriginLab). Error bars are shown for data points in the displacement curves obtained in two or more rounds of transfections.
(§3) Results from the functional experiments with recombinant zfGPCR transiently expressed in COS-7 cells were analyzed by the Prism 4 software using a four-parameter logistic sigmoidal curve fit model. Data points represent mean +/- SEM.
They are shown together with the 95% confidence intervals (CIs). The F-test was used to compare the IC50 value for zfGLP-1 with the IC50 values for the other tested peptides obtained in the competitive binding experiments shown when ^125I-hGLP-1(7–36)amide or ^125I-exendin (9–39) were used as tracers. Following conditions were used for the curve fitting: (i) in the normalization step y = 0%was set to be 0, y = 100% was set to be 100; (ii) constrained curve-fit parameters were set to be equal to 0.00 on the bottom, 100 on top; (iii) IC50 was not constrained; (iv) the selected option in the non-linear regression curve fit was intended on finding out whether the best-fit of a selected parameter (IC50) differs between two sets.

[4] = test system: zfGPCR (dual zfGLP-1R/GCGR); assay: Competitive binding, displacement of 125I-hGLP-1(7–36)amide from recombinant zfGPCR expressed in COS-7 cells; set-up: species or system zebrafish (Danio rerio); settings: 125I-hGLP-1(7–36)amide tracer, intact COS-7 cells, 16–18 h at 4°C, triplicate wells; NSB with 1 μM peptide; n = 3 hGLP-1, n = 2 zf glucagon, exendin-4, exendin(9–39), n = 1 zfGLP-1. 95% CI: zfGLP-1 1.2–3.6; hGLP-1 0.98–13; zf glucagon 1.4–4.0; exendin-4 0.24–0.92; exendin(9–39) 2.4–14
Protocol: as §1
Dose-response curves for zfGLP-1, zfGLP-2 and zebrafish PACAP-38 were obtained from one transfection. […] Lower rounds of transfections were performed in experiments that replicated our published results from the competitive binding experiments with the displacement of ^125I-hGLP-1(7–36)amide binding to zfGPCR [41] and thus represented positive controls for these studies.
as §2, §3
They are shown together with the 95% confidence intervals (CIs). […]

[5] = test system: hGLP-1R mutant Asn318 to alanine; set-up: method as in PMID 23479653; settings: Asn318 mutated to alanine, cell surface expression unchanged; cited from earlier work
[6] = test system: zfGPCR (dual zfGLP-1R/GCGR); assay: Intracellular cAMP in COS-7 cells expressing recombinant zfGPCR; type: cell-based, zebrafish (Danio rerio); settings: for EC50: 20 min at 37°C, pH 7.4, 1 mM 1-methyl-3-isobutylxanthine, enzyme immunoassay, n = 9 zfGLP-1, n = 5 hGLP-1, zf glucagon, h glucagon, n = 3 exendin-4, n = 6 zfGLP-2. 95% CI: zfGLP-1 0.24–0.80, hGLP-1 0.65–1.63, zf glucagon 0.20–2.9, h glucagon 0.18–1.63, exendin-4 0.07–0.46, zfGLP-2 16.8–72.6
Protocol: The ability of different peptides to stimulate the increase in intracellular cAMP levels following their binding to the recombinant zfGPCR transiently expressed in COS-7 cells was measured using methods that we developed for non-mammalian G-protein coupled receptors. In brief, COS-7 cells were grown to confluence in 100-mm plates at 37°C and transfected with the pcDNA3 vector containing the recombinant zfGPCR using the TransFast transfection reagent (Promega, Madison, WI) at a […] of plasmid DNA (25 ug) to transfection reagent (75 μL). After 24 h cells were trypsynized and transferred to 24-well plates (Biocore, Becton-Dickinson, Franklin Lakes, NJ). Peptides (pM-μM) were added 24–48 h later. Cells were equilibrated prior to the addition of peptides with the assay buffer (DMEM, 0.5% BSA, 20mM HEPES, 1mM 1-methyl-3-isobutylxanthine, 0.1mM phenylmethylsulfonyl fluoride, pH 7.4) for 20 min at 37°C. Each peptide concentration was added in triplicate wells for 20 min at 37°C. cAMP dose-response curves for each tested peptide were obtained in a single 24-well plate. In all experiments, forskolin (100 nM) (Sigma-Aldrich, St.Louis, MO) was added as a positive control, also in triplicate wells, in the same 24-well plate as the tested peptide. After incubation, the media was removed and cells were lysed by the addition of cold ethanol (1 mL per well). Cell debris was pelleted by centrifugation (10,000 g) for 10-min, and supernatants were dried using a vacuum concentrator. Samples were resuspended in an assay buffer provided by the manufacturer and cAMP levels were quantified by the enzyme immunoassay kit (Cayman Chemicals, Ann Arbor, MI) according to the manufacturer’s instructions. The basal concentration of cAMP (in the absence of peptides) was taken as 1.00, and was in the range of 9–16 pmol/well. Results are presented as a fold-increase over basal.
Results were plotted by the Origin 9 software (OriginLab), and EC50 values were calculated by Prism 4 software as described below.
as §3
They are shown together with the 95% confidence intervals (CIs).
Comparison of EC50 values calculated from the zfGLP-1 cAMP dose-response curve with the EC50 calculated from the cAMP dose-response curves for each of the tested peptides were performed by the F-test from the Prism 4 software which compares the fitted mid-point (EC50) from the data sets of the two dose-response curves under comparison. Conditions of analysis were as follows: (i) in the normalization step y = 0% was set to be 1 (the basal cAMP concentration taken as 1); y = 100% was set to be the largest value in each data set; (ii) constrained curve-fit parameters were set to be equal to 0.00 on the bottom, 100 on top; (iii) EC50 was not constrained; (iv) the selected option in the non-linear regression curve fit was intended on finding out whether the best-fit of a selected parameter (EC50) differs between two sets.

[7] = target: recombinant glucagon receptor from the goldfish C. auratus (gfGCGR); settings: 95% CI: zebrafish glucagon 4.3–18 nM; goldfish glucagon 0.31–1 nM; cited from earlier work
Source text: To be consistent with our initial characterization of this receptor which we referred to as zfGLP-1R [41] and the characterization of the gfGCGR [18] we used only the sequences of zfGLP-1 and zf glucagon used in those studies (shown in Fig 1) and not the second zfGLP-1 and second zebrafish glucagon found in the zebrafish genome.

[8] = test system: goldfish GCGR; settings: 95% CI: goldfish glucagon 1.3–7 nM; human glucagon 4.7–20 nM; cited from earlier work
Source text: In those studies the EC50 for goldfish glu ...

[9] = test system: hGLP-1R mutant Ser155 to alanine; settings: Ser152 in hGCGR = Ser155 in hGLP-1R, mutated to alanine; cited from earlier work
Source text: Among those are TM1-TM7 interaction between Ser152^1.50 and Ser 390^7.47 in which Ser152^1.50 in TM1 in hGCGR forms a hydrogen bond with the backbone of Ser390^7.47 in TM7.

[10] = test system: zfGPCR (dual zfGLP-1R/GCGR); settings: displacement of 125I-hGLP-1(7–36)amide; read-out: IC50 in competitive binding (earlier characterization of the zfGPCR); cited from earlier work
Protocol: Furthermore, exendin-4, an agonist of hGLP-1R, displaced in competitive binding experiments the binding of ^125I-hGLP-1(7–36) amide to the zebrafish receptor with an IC50 of 0.9 nM, which is within a similar concentration range as the one determined in competitive binding experiments with recombinant hGLP-1R [41] and rGLP-1R [23]. However, subsequent phylo ...

[11] = test system: recombinant hGCGR; set-up: method as in PMID 7507321; settings: cited from earlier work
[12] = test system: hGCGR mutant Cys240 to Tyr240; settings: cited from earlier work
Source text: In the 7TM crystal structure of hGCGR [30], the side chain of Tyr239^3.44 in TM3 interacts with the backbone atoms of Gly359^6.50 (3.5Å) and Leu358^6.49 (2.8Å) in TM6. Tyr239^3.44 is conserved only in hGLP-1R and is substituted with Asn23 ...

[13] = test system: hGCGR mutant Glu362 to alanine; settings: reduced surface expression; cited from earlier work
Source text: Our inspection of the 7TM crystal structure of hGCGR [30] also identified a hydrophilic cluster formed by a salt bridge between Lys187^2.60 in TM2 and Glu362^6.53 in TM6, and hydrophilic portions of residues Tyr149^1.47 in TM1, Gln232^2.38, Asp238^2.43, […] in TM2; His361^6.52 in TM6, and Asp385^7.42, Ser389^7.46 Gln392^7.49 in TM7. This TM7-TM6-TM2-TM1 cluster offers a hydrophilic environment embedded deep inside the hydrophobic transmembrane.

[14] = target: recombinant glucagon receptor from the frog R. tigrina rugulosa; set-up: method as in PMID 10471837; settings: cited from earlier work
[15] = target: recombinant rat glucagon receptor; settings: cited from earlier work
Protocol: (§4) Moreover, EC50’s for human and zebrafish glucagon obtained in our study were within similar concentration range as the EC50 ‘s determined in experiments with recombinant glucagon receptors from other vertebrate species. Thus, EC50‘s for human glucagon obtained from the cAMP assays performed with the recombinant glucagon receptor from the frog and the recombinant rat glucagon receptor were 0.8 nM [19] and 0.7nM [13], respectively, and are similar to the EC50 value of 1nM determined for the glucagon receptor in rat hepatocytes.

[16] = target: glucagon receptor in rat hepatocytes; settings: cited from earlier work
Protocol: as §4

[17] = target: recombinant glucagon receptor from the frog; settings: cited from earlier work
Protocol: as §4

Substance: GLP-1: refers to both GLP-1(7–37) and GLP-1(7–36)amide
stimulation of intracellular cAMP, GLP-1 vs exendin-4 [1]: to a similar degree | gluconeogenesis [2]: stimulated gluconeogenesis

Substance: exendin(9–39)
IC50 [3]: 4.21 nM | IC50 [4]: 5.8 nM | receptor affinity [5]: reduced the receptor’s affinity | behaviour at the zfGPCR ([6]; cAMP assay): behaved as an antagonist | stimulatory effect on cAMP levels ([6]; even at 1μM, n = 4): did not show any stimulatory effects

Substance: goldfish glucagon: glucagon of goldfish, literature comparison (HSEGTFSNDYSKYLETRRAQDFVEWLMNS; Glucagon; UniProt P79695 50-78, looked up)
IC50 [7]: 0.56 nM | EC50 [8]: 3 nM

EC50 [6]: 1 nM
Substance: hGLP-1: Synthetic hGLP-1(7–36)amide (referred throughout as hGLP-1), purchased from Bachem
IC50 [3]: 178 nM | IC50 [4]: 3.6 nM | receptor affinity [5]: reduced the receptor’s affinity | receptor affinity [9]: small reduction of receptor affinity | IC50 [10]: 0.9 nM

EC50 [6]: 0.54 nM
Substance: human glucagon: synthetic human glucagon purchased from Bachem
IC50 [3]: 67 nM | EC50 [8]: 9.7 nM | IC50 [11]: 5 nM | effect of mutation on binding to glucagon [12]: did not have an effect | effect of mutation on binding of glucagon [13]: decrease in the binding | IC50 [14]: 12 nM | EC50 [15]: 0.7 nM | EC50 [16]: 1 nM | EC50 [17]: 0.8 nM
